Tests used:
[1] = Anticancer activity against human D-54MG cells assessed as cell growth inhibition inhibition incubated for 3 days; assay type: functional, cell-based; settings: D54MG, 72 h
[2] = Anticancer activity against patient-derived DB93 cells assessed as cell growth inhibition incubated for 3 days; assay type: functional, cell-based; settings: Homo sapiens, DB93, 72 h
LN-229 = assay: Anticancer activity against human LN-229 cells assessed as cell growth inhibition inhibition incubated for 3 days; assay type: functional, cell-based; settings: LN-229, 72 h
U-251 = assay: Anticancer activity against human U-251 cells assessed as cell growth inhibition inhibition incubated for 3 days; assay type: functional, cell-based; settings: U-251, 72 h
[3] = Lipophilicity, logP of compound; assay type: physicochemical; settings: octanol/water
[4] = Anticancer activity against patient-derived DB70 cells assessed as cell growth inhibition inhibition incubated for 3 days; assay type: functional, cell-based; settings: Homo sapiens, DB70, 72 h

SMILES | IC50 [1] [µM] | IC50 [2] [µM] | IC50 (LN-229) [µM] | IC50 (U-251) [µM] | logP ([3]; read-out: logP) | IC50 [4] [µM] | logP [3]
CCC1=C(C)/C(=C/c2ccc(C(=O)NC(=N)N)cc2)CCC1(C)C | 5.6 | 2.09 | 6.54 | 5.06 | 3.98 | 1.77 | –
CCC1=C(C)/C(=C/c2ccc(-c3noc(-c4ccc(Cl)cc4)n3)cc2)CCC1(C)C | > 100 | – | – | 10 | 8.12 | – | –
CCC1=C(C)/C(=C/c2ccc(C(=O)Nc3nc4ccccc4[nH]3)cc2)CCC1(C)C | – | – | > 75 | 4.47 | 5.78 | – | –
CCC1=C(C)/C(=C/c2ccc(/C(N)=N/O)cc2)CCC1(C)C | 66.6 | – | – | 56.8 | 4.53 | – | –
CCC1=C(C)/C(=C/c2ccc(C#N)cc2)CCC1(C)C | 72.2 | – | – | 83.8 | 5.25 | – | –
CCC1=C(C)/C(=C/c2ccc(C3=NOB(c4ccccc4)N3)cc2)CCC1(C)C | 47.4 | 8.31 | 60 | 26.8 | 6.5 | 13.3 | –
CCC1=C(C)/C(=C/c2ccc(-c3noc(-c4ccncc4)n3)cc2)CCC1(C)C | – | – | > 100 | > 100 | 6.22 | – | –
CCC1=C(C)/C(=C/c2ccc(-c3noc(-c4ccccc4OC(F)(F)F)n3)cc2)CCC1(C)C | 65.6 | – | – | 58.4 | – | – | 9.09
CCC1=C(C)/C(=C/c2ccc(C(=O)Nc3ccc(Cl)cc3Cl)cc2)CCC1(C)C | – | – | – | – | 7.14 | – | –
CCC1=C(C)/C(=C/c2ccc(-c3noc(-c4cccnc4)n3)cc2)CCC1(C)C | – | – | 35.6 | 37.8 | 6.22 | – | –
CCC1=C(C)/C(=C/c2ccc(C(=O)Nc3ccc(O)cc3)cc2)CCC1(C)C | > 100 | – | – | > 100 | 5.63 | – | –
CCC1=C(C)/C(=C/c2ccc(-c3noc(-c4ccc(Br)cc4)n3)cc2)CCC1(C)C | > 100 | – | – | 7 | 8.39 | – | –
CCC1=C(C)/C(=C/c2ccc(C(=O)Nc3ccc4[nH]c(C(F)(F)F)nc4c3)cc2)CCC1(C)C | – | – | > 100 | > 100 | 6.37 | – | –
CCC1=C(C)/C(=C/c2ccc(C(=O)Nc3nccs3)cc2)CCC1(C)C | – | – | > 100 | > 100 | 5.74 | – | –
CCC1=C(C)/C(=C/c2ccc(C(=O)Nc3ccc(C(F)(F)F)cc3)cc2)CCC1(C)C | 3.81 | > 50 | 5.93 | 6.04 | 6.94 | > 50 | –
CCC1=C(C)/C(=C/c2ccc(C(=O)Nc3nc4ccccc4s3)cc2)CCC1(C)C | 6.64 | 3.54 | 22.8 | 19.3 | 7.22 | 6.67 | –
CCC1=C(C)/C(=C/c2ccc(C(=O)Nc3nc4ccc(Br)cc4s3)cc2)CCC1(C)C | 100 | – | – | 75 | 8.05 | – | –
CCC1=C(C)/C(=C/c2ccc(C(=O)Nc3ccc(OC(F)(F)F)cc3)cc2)CCC1(C)C | – | – | 47.5 | 20.7 | 7.55 | – | –
Cn1nnc2c(C(N)=O)ncn2c1=O [TEMOZOLOMIDE] | > 500 | > 500 | > 1000 | > 500 | – | 25.4 | -1.15
